Assay [1] has as its system MDA-MB 231 human breast cancer. The experiment in a line: MTT cell growth inhibition, MDA MB231. In kind it is cell-based. To be noted: Homo sapiens, MDA-MB-231. As to the method: (§1) HT-29, SW-480 and HCT-15 human colon adenocarcinoma, MIA PaCa-2 and BxPC-3 human pancreatic cancer, LNCAP human prostate cancer, A549 human lung cancer, MCF-7 (estrogen receptor positive), MDA-MB 231 and SK-BR-3 (estrogen receptor negative) human breast cancer, and Jurkats human leukemia cell lines were obtained from American Type Tissue Collection (Manassas, Va.). All cells lines were grown as monolayers except for the Jurkats which were grown in suspension. The pancreatic and breast cancer cells were grown in Dulbecco's modified Eagle's medium, the prostate, Jurkat, SW-480 and HCT-15 colon cells were grown in RPMI 1640 medium, the lung cells were grown in F-12 and the colon HT-29 cells were grown in McCoy 5A. All media were supplemented with 10% fetal calf serum (Invitrogen, Carlsbad, Calif.) penicillin (50 U/ml), and streptomycin (50 μg/ml) (Invitrogen, Carlsbad, Calif.). Cells were seeded on culture dishes at a density of 25×10^3 cells/cm^2 and incubated at 37° C. in 5% CO2 and 90% relative humidity. Single cell suspensions were obtained by trypsinization (0.05% trypsin/EDTA), and cells were counted using a hemocytometer. Viability was determined by the trypan blue dye exclusion method.
(§2) Cell growth inhibitory effect of NOSH compounds were measured using a colorimetric MTT assay kit (Roche, Indianapolis, Ind.). Cancer cells were plated in 96-well plates at a density of 50,000 cells/well. The cells were incubated for 24 h with different concentrations of NOSH compounds. After the indicated time, 10 μl of MTT dye (3-[4,5-dimethylthiazol-2-yl]-2,5-diphenyl tetrazolium bromide, 5 mg/ml in phosphate buffered saline), was added to each well, and the plates were incubated for 2 hours at 37° C. Then, the media was aspirated, and add 100 μl of the solubilization solution (10% SDS in 0.01 M HCl) was added to each well to solubilize the formant crystals. The absorbance of the plates was measured on an ELISA reader at a wavelength of 570 nm. Each sample was performed in triplicate, and the entire experiment was repeated three times.
(§3) HT-29, SW-480 and HCT-15 human colon adenocarcinoma, MIA PaCa-2 and BxPC-3 human pancreatic cancer, LNCAP human prostate cancer, A549 and H383 human lung cancer, MCF-7, MDA-MB 231 and SK-BR-3 human breast cancer and Jurkat T cell human leukemia cell lines were obtained from American Type Tissue Collection (Manassas, Va.) All cells lines were grown as monolayers except for the Jurkat T cells which were grown as suspension culture. The pancreatic and breast cancer cells were grown in Dulbecco's modified Eagle's medium, the prostate, Jurkat, SW-480 and HCT-15 colon cells were grown in RPMI 1640 medium, the lung cells were grown in F-12 and the colon HT-29 cells were grown in McCoy 5A. All media were supplemented with 10% fetal calf serum (Invitrogen, Carlsbad, Calif.) penicillin (50 U/ml), and streptomycin (50 μg/ml) (Invitrogen, Carlsbad, Calif.). Cells were seeded on culture dishes at a density of 25×10^3 cells/cm^2 and incubated at 37° C. in 5% CO2 and 90% relative humidity. Single cell suspensions were obtained by trypsinization (0.05% trypsin/EDTA), and cells were counted using a hemacytometer. The final DMSO concentration was adjusted in all media to 1%. Viability was determined by the trypan blue dye exclusion method.
(§4) Cell growth inhibitory effect of all NOSH-NSAIDs was measured using a colorimetric MTT assay kit (Roche, Indianapolis, Ind.). Cancer cells were plated in 96-well plates at a density of 30,000-50,000 cells/well depending on cell type. The cells were incubated for 24 hours with different concentrations of NOSH-NSAIDs. After the indicated time, 10 μL of MTT dye (3-[4,5-dimethylthiazol-2-yl]-2,5-diphenyl tetrazolium bromide, 5 mg/mL in phosphate buffered saline), was added to each well, and the plates were incubated for 2 hours at 37° C. Then, the media was aspirated, and 100 μL of the solubilization solution (10% SDS in 0.01 M HCl) was added to each well to solubilize the formant crystals. […]

The subject of assay [2] is MCF-7 human breast cancer. The experiment in a line: MTT cell growth inhibition, MCF7. To be noted: Homo sapiens, MCF7. In kind it is cell-based. Here is the method:
as §1, §2, §3, §4

In assay [3] the test system is MIA PaCa-2 human pancreatic cancer. The experiment in a line: MTT cell growth inhibition, MIA PaCa2. The class given is cell-based. To be noted: Homo sapiens, MIA PaCa-2. As to the method:
as §1, §2, §3, §4

In assay [4] the test system is BxPC-3 human pancreatic cancer. Briefly: MTT cell growth inhibition, BxPC3. The class given is cell-based. To be noted: Homo sapiens, BXPC-3, read-out: IC50 for cell growth inhibition, Pancreas BxPC3. As to the method:
as §1, §2, §3, §4

The next assay deals with A549 human lung cancer. Briefly: MTT cell growth inhibition, A549. To be noted: Homo sapiens, A549. The class given is cell-based. As to the method: as §1, §2, §3, §4
Assay [5] deals with LNCAP human prostate cancer. The experiment in a line: MTT cell growth inhibition, LNCAP. To be noted: Homo sapiens, LNCaP. In kind it is cell-based. As to the method:
as §1, §2, §3, §4

For a further assay, the system named is TNF-α. The experiment in a line: Plasma TNF-α enzyme immunoassay. In kind it is in vivo, rat. To be noted: rats, equimolar oral doses: ASA 180 (1 mmol/kg), NOSH-ASA 477, naproxen 80, NOSH-naproxen 188, sulindac 200, NOSH-sulindac 467 mg/kg; control 11±0.3. As to the method: Fresh samples of blood from the animals were taken by cardiac puncture into heparin-containing vials. The determination of plasma TNF-α was carried out by an enzyme immunoassay kit from R&D systems (Minneapolis, Minn.). Briefly, each sample (50 μL) was incubated with antibodies specific for rat TNF-α and washed three times with assay buffer. An enzyme-linked polyclonal antibody specific for rat TNF-α conjugated to horseradish peroxidase was then added to the wells. Following washing of unbound antibody-enzyme reagent, a substrate solution (containing tetramethylbenzidine, TMB, plus hydrogen peroxide) was added to the wells. The enzyme reaction yielded a blue product (oxidized TMB) that turned yellow when the stop solution (dilute hydrochloride acid) was added. The intensity of the color was determined by measuring the OD of the yellow color in a standard ELISA plate reader at 450 nm. Sensitivity of this TNF-α assay was determined by adding two standard deviations to the mean optical density value of 20× zero standard replicates and calculating the corresponding concentration. The kit contains all reagents and standards needed for the TNF-α sensitivity assay. The results are expressed as pg/mL.
This was done by an enzyme immunoassay kit from R&D systems (Minneapolis, Minn.) following the protocol described by the manufacturer. Briefly, fresh blood (50 μL) was incubated with antibodies specific for rat TNF-α and washed three times with assay buffer. An enzyme-linked polyclonal antibody specific for rat TNF-α conjugated to horseradish peroxidase was then added to the wells. Following washing of unbound antibody-enzyme reagent, a substrate solution (containing tetramethylbenzidine, TMB, plus hydrogen peroxide) was added to the wells. The enzyme reaction yielded a blue product (oxidized TMB) that turned yellow when the stop solution (dilute hydrochloride acid) was added. The intensity of this was measured at 450 nm. Sensitivity of this TNF-α assay was determined by adding two standard deviations to the mean optical density value of 20× zero standard replicates and calculating the corresponding concentration.

[6] abbreviates: 24 hours, read-out: IC50 for cell growth inhibition, Pancreas MIA PaCa2.
Where [7] appears, read: 24 hours, read-out: IC50 for cell growth inhibition, Lung A540.
[8] abbreviates: 24 hours (Table 7), read-out: IC50 for cell growth inhibition, Pancreas MIAPaCa2.

Read-outs that look alike come from different tables or passages of the source.

We go through four compounds from patent US10450260B2, “NO- and H2S-releasing compounds” (RESEARCH FOUNDATION OF THE CITY UNIVERSITY OF NEW YORK, priority 2011, dated 2019).

As to `O=C(CCC(=O)Oc1ccccc1C(=O)Oc1ccc(-c2cc(=S)ss2)cc1)OCCCCO[N+](=O)[O-]` [NOSH-2, 4-(nitrooxy)butyl (2-((4-(3-thioxo-3H-1,2-dithiol-5-yl)phenoxy)carbonyl)phenyl) succinate], the IC50 was found to be 0.085 ± 0.008 µM in assay [1] (24 hours); 0.07 ± 0.005 µM in assay [2] (24 hours); 0.102 ± 0.018 µM in assay [3] (setting [6]); 0.1 ± 0.009 µM in assay [4] (24 hours); 0.12 ± 0.014 µM with A549 human lung cancer (setting [7]); 0.1 ± 0.012 µM in assay [5] (24 hours).
As to `O=C(CCCC[C@@H]1CCSS1)Oc1ccccc1C(=O)OCCCCO[N+](=O)[O-]` [NOSH-4, (R)-4-(nitrooxy)butyl 2-((5-(1,2-dithiolan-3-yl)pentanoyl)oxy)benzoate], the 50% inhibitory concentration (IC50) was 0.8 ± 0.022 µM in assay [1] (24 hours); 0.28 ± 0.015 µM in assay [2] (24 hours); 0.8 ± 0.039 µM in assay [3] (setting [6]); 0.7 ± 0.032 µM in assay [4] (24 hours); 0.3 ± 0.012 µM in the assay on A549 human lung cancer (setting [7]); 0.5 ± 0.018 µM in assay [5] (24 hours).
For the compound `COc1ccc2cc([C@H](C)C(=O)O)ccc2c1` [naproxen, reference compound], the IC50 in assay [1] (24 hours (Table 7)) turned out to be 2900 µM; in assay [2] (24 hours (Table 7)), 2350 µM; in assay [3] (setting [8]), 3200 µM; in assay [4] (24 hours (Table 7)) it was 2450 µM.
Consider `CC1=C(CC(=O)O)c2cc(F)ccc2/C1=C\c1ccc([S+](C)[O-])cc1` (centres unmarked) [sulindac, reference compound], for which the IC50 was 935 µM in assay [1] (24 hours (Table 7)); 965 µM in assay [2] (24 hours (Table 7)); 792 µM in assay [3] (setting [8]); 970 µM in assay [4] (24 hours (Table 7)); 212 µM in the assay on A549 human lung cancer (24 hours (Table 7), read-out: IC50 for cell growth inhibition, Lung A549); 810 µM in assay [5] (24 hours (Table 7)). In addition, the “plasma TNFα concentration” value in the assay with TNF-α amounted to 230 ± 5 pg/mL.

As a reminder, the IC50 is the midpoint of a concentration-inhibition curve.
